Calls of active or inactive are those of the source. No cut-off for these calls is given here.

A short description of data set [1]: Antioxidant activity assessed as ABTS radical scavenging activity by measuring trolox equivalent antioxidant capacity after 1 hrs by UV/Vis microplate spectrophotometric analysis. In kind it is functional.
The target in data set [2] is Acetylcholinesterase (Homo sapiens) (UniProt P22303). Kind of data set: Inhibition of human erythrocyte acetylcholinesterase using acetylthiocholine as substrate at 20 uM by Ellman's method relative to control.
Data set [3] in a line: Antioxidant activity assessed as reduction in ABTS radical measured after 1 hrs by UV/Vis microplate spectrophotometric analysis. In kind it is functional.
Data set [4] in a line: Antioxidant activity assessed as trolox equivalent of ORAC radical scavenging activity at 10 uM measured for 2 hrs by AAPH based fluorescence microplate reader. Type of data set: functional.
Data set [5] in a line: Antioxidant activity assessed as trolox equivalent of FRAP radical scavenging activity measured after 1 hrs by spectrophotometric analysis. Type of data set: functional.
Data set [6] has as its target Cholinesterase (Equus caballus) (UniProt P81908). Briefly: Inhibition of equine serum butyrylcholinesterase using butyrylthiocholine as substrate at 20 uM by Ellman's method relative to control. A general note: In Ellman's method for cholinesterases, released thiocholine reacts with DTNB.
The nature of data set [7]: Antioxidant activity assessed as ORAC radical scavenging activity by measuring fold change in trolox equivalent at 10 uM measured for 2 hrs by AAPH based fluorescence microplate reader relative to trolox. In kind it is functional.
Data set [8] addresses T1, Liver carboxylesterase (Sus scrofa, UniProt Q29550).
T1 sequence (Q29550 whole entry): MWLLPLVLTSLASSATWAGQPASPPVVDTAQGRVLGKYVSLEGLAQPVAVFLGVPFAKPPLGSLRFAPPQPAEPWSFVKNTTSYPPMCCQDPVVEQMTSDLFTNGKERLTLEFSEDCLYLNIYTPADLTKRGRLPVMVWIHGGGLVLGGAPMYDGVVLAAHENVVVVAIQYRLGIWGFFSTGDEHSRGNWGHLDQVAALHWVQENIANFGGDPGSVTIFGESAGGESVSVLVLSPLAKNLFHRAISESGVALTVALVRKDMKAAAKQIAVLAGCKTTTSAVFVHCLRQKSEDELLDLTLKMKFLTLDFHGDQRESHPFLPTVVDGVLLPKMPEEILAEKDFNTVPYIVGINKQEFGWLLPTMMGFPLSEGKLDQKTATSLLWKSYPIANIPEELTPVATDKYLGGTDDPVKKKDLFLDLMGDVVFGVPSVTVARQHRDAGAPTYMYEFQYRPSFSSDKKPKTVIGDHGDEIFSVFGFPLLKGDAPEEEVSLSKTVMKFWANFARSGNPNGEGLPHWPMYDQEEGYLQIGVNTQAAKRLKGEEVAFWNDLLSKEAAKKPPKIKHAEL
Kind of data set: Inhibition of porcine liver carboxylesterase using 4-nitrophenylacetate as substrate assessed as release of 4-nitrophenol by spectrophotometric analysis.

Data set [9] is described as follows: Metal chelating activity assessed as Fe2+-compound complex formation by measuring absorbance at 400 uM measured after 30 mins in presence of FeCl2.4H2O by UV-Vis spectroscopic analysis (reference value: 225 to 374 nanometer).
Data set [10] can be described thus: Antioxidant activity against AAPH-induced oxidative stress in Sprague-Dawley rat erythrocytes assessed as membrane stabilizing activity by measuring hemolysis at 100 uM preincubated for 15 mins followed by AAPH addition and measured after 3 hrs by microplate reader analysis (reference value: 88.6 +/- 3.7%). Type of data set: functional, Erythrocyte. Particulars: time 195 min, 3.25 h.

A short description of data set [11]: Hemolytic activity in AAPH-induced Sprague-Dawley rat erythrocytes assessed as hemolysis at 100 uM measured after 3 hrs by microplate reader analysis relative to control. Type of data set: toxicity, cell-based, Erythrocyte. Particulars: read-out: Activity.
A short description of data set [12]: Antioxidant activity against AAPH-induced oxidative stress in Sprague-Dawley rat erythrocytes assessed as inhibition of lipid peroxidation by measuring fold change at 100 uM preincubated for 15 mins followed by AAPH addition and measured after 3 hrs by TBARS assay (reference value: 1). The conditions noted are these: time 195 min, 3.25 h. In kind it is functional, Erythrocyte.

The target in data set [13] is T2, Cocaine esterase (Homo sapiens, UniProt O00748).
T2 sequence (O00748 whole entry): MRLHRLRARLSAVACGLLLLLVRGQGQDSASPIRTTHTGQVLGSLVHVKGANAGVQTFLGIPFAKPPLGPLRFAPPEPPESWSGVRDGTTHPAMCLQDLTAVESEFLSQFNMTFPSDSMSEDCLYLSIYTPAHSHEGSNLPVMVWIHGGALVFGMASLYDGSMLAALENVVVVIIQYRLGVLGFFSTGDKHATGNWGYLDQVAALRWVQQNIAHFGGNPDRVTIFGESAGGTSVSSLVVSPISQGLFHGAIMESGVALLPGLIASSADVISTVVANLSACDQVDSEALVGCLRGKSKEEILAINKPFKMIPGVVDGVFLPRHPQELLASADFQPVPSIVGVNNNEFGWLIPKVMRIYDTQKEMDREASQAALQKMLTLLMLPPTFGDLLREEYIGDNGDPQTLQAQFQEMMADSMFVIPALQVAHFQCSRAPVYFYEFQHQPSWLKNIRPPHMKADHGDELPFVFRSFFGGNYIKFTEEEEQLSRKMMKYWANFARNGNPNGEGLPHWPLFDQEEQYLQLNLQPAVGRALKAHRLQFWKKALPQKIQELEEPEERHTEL
Kind of data set: Inhibition of human CES2 using 4-nitrophenylacetate as substrate assessed as release of 4-nitrophenol by spectrophotometric analysis.

In data set [14] the target is T3, Liver carboxylesterase 1 (Homo sapiens, UniProt P23141).
T3 sequence (P23141 whole entry): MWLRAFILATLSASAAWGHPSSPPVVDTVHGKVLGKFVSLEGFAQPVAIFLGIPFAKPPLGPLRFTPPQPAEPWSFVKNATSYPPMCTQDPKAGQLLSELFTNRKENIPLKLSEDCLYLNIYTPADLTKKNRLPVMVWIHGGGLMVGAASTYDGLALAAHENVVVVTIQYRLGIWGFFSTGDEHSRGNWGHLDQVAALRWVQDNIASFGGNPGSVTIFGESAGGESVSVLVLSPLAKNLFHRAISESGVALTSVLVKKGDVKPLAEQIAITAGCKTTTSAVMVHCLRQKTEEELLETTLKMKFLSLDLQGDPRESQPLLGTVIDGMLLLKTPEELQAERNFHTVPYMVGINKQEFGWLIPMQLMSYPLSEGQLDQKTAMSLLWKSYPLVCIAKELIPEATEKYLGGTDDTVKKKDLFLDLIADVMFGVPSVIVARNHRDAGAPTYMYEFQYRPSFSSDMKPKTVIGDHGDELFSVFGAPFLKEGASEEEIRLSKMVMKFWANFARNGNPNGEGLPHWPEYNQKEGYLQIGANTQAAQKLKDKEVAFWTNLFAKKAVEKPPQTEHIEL
Kind of data set: Inhibition of human CES1 using 4-nitrophenylacetate as substrate assessed as release of 4-nitrophenol by spectrophotometric analysis.

Data set [15] has as its target T1, Liver carboxylesterase. Briefly: Inhibition of porcine liver carboxylesterase using 4-nitrophenylacetate as substrate assessed as release of 4-nitrophenol at 20 uM by spectrophotometric analysis relative to control. Particulars: pig, porcine liver carboxylesterase (isolated enzyme), probe 4-nitrophenylacetate.

Chain of Acetylcholinesterase (Homo sapiens) (P22303 whole entry): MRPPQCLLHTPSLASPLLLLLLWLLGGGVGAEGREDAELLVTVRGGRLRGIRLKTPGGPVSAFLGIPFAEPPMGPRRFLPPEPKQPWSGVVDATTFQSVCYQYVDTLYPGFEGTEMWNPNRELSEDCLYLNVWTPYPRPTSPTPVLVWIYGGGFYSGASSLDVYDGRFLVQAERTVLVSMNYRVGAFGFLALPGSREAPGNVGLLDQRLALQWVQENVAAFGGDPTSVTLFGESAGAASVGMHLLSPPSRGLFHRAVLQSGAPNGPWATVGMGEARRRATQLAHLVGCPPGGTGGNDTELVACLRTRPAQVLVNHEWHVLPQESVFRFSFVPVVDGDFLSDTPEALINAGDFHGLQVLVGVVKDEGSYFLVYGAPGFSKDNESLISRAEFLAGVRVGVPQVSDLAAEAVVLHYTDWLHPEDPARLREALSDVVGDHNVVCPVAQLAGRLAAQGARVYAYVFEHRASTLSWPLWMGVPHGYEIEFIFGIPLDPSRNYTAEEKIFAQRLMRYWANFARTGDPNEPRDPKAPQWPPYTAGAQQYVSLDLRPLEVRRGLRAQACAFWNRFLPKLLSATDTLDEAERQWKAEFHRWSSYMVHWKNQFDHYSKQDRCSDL
Chain of Cholinesterase (Equus caballus) (P81908 whole entry): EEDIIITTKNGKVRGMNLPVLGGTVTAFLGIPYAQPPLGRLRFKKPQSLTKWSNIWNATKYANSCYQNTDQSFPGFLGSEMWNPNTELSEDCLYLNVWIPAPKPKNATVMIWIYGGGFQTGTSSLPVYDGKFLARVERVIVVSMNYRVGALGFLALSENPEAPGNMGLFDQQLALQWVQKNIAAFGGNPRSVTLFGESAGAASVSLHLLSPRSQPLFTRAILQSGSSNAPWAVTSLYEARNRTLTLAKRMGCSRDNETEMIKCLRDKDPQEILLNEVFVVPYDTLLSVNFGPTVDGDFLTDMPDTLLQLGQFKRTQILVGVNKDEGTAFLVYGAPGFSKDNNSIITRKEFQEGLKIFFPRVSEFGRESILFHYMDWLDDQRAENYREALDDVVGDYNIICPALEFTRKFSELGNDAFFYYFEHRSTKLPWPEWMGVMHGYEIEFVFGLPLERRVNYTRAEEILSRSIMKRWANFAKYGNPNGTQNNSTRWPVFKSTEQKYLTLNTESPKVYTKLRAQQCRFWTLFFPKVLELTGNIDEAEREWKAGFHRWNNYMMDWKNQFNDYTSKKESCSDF

The inhibition is the relative decrease from the control value, in per cent. The IC50 is the concentration that gives 50% inhibition. Turning to `COc1ccc(N/N=C(\C(=O)O)C(=O)C(F)(F)C(F)F)cc1`, the Activity in [1] came to 1.8; in [4], 3.73; in [5] it was 1.9. For the same compound, the values for the inhibition in data set [2] and in data set [6] were 4.2% and 3.5%, respectively. The results for the IC50 in data set [3] and in data set [8] were 10.2 µM and 52100 nM, respectively. For the same compound, the fold change (FC) in data set [7] is greater than 3.
With `Cc1ccc(N/N=C(\C(=O)O)C(=O)C(F)(F)C(F)F)cc1`, the Activity came to 1.7 in [1] and 1.69 in data set [5]. The inhibition entry in [2] is “inactive”. For the same compound, the IC50 in data set [3] turned out to be 9.3 µM; in data set [8], 5580 nM. The inhibition in data set [6] came to 5.7%. In addition, the fold change (FC) in data set [7] is greater than 3.
Take `O=C(O)/C(=N\Nc1ccc([N+](=O)[O-])cc1)C(=O)C(F)(F)F`: in data set [5], the Activity came out at 0.24. In data set [7], the fold change (FC) is greater than 3.
In the case of `COc1ccc(N/N=C(\C(=O)O)C(=O)C(F)(F)F)cc1`, the Activity was 267 nm in data set [9], 3.6 in data set [4], 2.77 in data set [5] and 58.6% in data set [10]. Besides, the hemolysis at 3 h, 100 µM in [11] is 2%. Further, the results for the fold change (FC) in [7] and in [12] were greater than 3 and 0.64, respectively.
As to `CCOC(=O)c1ccc(N/N=C(\C(=O)O)C(=O)C(F)(F)F)cc1`, the fold change (FC) in data set [7] is greater than 3.
In the case of `O=C(O)/C(=N\Nc1ccccc1)C(=O)C(F)(F)F`, the Activity in data set [1] was 1.6; in data set [4] it was 3.7; in data set [5] it was 1.48. The values for the inhibition in data set [2] and in [6] were 16.5% and 4%, respectively. Further, the concentration for half-maximal inhibition (IC50) stood at 8.6 µM in [3] and 750 nM in [8]. In data set [7], the fold change (FC) is greater than 3.
Consider `CCOC(=O)c1ccccc1N/N=C(\C(=O)O)C(=O)C(F)(F)C(F)(F)C(F)(F)C(F)(F)F`, for which the Activity in [1] is 0.02; in data set [4], 1.7. The inhibition in data set [2] amounted to 24%; in [6] it was 13.7%. Further, the fold change (FC) in data set [7] was greater than 3. Moreover, the IC50 in data set [8] is 140 nM.
Turning to `CC(=O)/C(=N/Nc1ccc(C)cc1)C(=O)O`, the Activity was 3.37 in data set [4] and 1.69 in data set [5]. In addition, the fold change (FC) in [7] is greater than 3.
Regarding `Cc1ccc(N/N=C(\C(=O)O)C(=O)C(F)(F)F)cc1`, the IC50 in data set [13] stood at 97 nM; in [14] it was 921 nM. Moreover, the results for the Activity in data set [4] and in data set [5] were 3.03 and 2.63, respectively. In data set [7], the fold change (FC) was greater than 3.
Take `Cc1c(C)c2c(c(C)c1O)CCC(C)(C(=O)O)O2` (stereo unspecified) [TROLOX]: the Activity in data set [1] amounted to 1; in data set [4] it was 1; in data set [5] it was 1; in data set [10], 56.7%. The IC50 in data set [3] was found to be 20.4 µM. For the same compound, the “fold change (FC)” value in [12] is given as 0.85.
In the case of `CCOC(=O)c1ccc(N/N=C(/C(C)=O)C(=O)O)cc1`, the Activity stood at 1.36 in data set [1], 0.47 in data set [4] and 0.19 in data set [5]. Moreover, the inhibition entry in data set [2] and in data set [6] was “inactive” throughout. Besides, the IC50 in [3] was determined as 10.2 µM. For the same compound, the inhibition at 20 µM in data set [15] was 16.1%.
Take `CC(=O)/C(=N/Nc1ccccc1)C(=O)O`: the Activity in data set [1] came to 1.6; in data set [4], 3.43; in data set [5] it was 0.79. In addition, the inhibition in [2] is 4.7%. Further, in data set [3], the IC50 worked out at 9.8 µM. Moreover, the inhibition result in [6] is “inactive”. Besides, the fold change (FC) in [7] is greater than 3. Further, the inhibition at 20 µM in data set [15] stood at 17.9%.
In the case of `CCOC(=O)c1ccccc1N/N=C(\C(=O)O)C(=O)C(F)(F)F`, the fold change (FC) in [7] was greater than 3.
As for `Cc1ccc(N/N=C(\C(=O)O)C(=O)C(F)(F)C(F)(F)F)cc1`, the Activity in data set [1] is 1.45; in [4] it was 3.7; in data set [5] it was 1.71. In addition, the results for the inhibition in data set [2] and in data set [6] were 10.2% and 15.5%, respectively. Besides, the IC50 was found to be 9.9 µM in data set [3] and 122 nM in data set [8]. Besides, the fold change (FC) in data set [7] was greater than 3.
With `Cc1ccc(N/N=C(\C(=O)O)C(=O)C(F)(F)C(F)(F)C(F)(F)F)cc1`, the Activity in data set [1] was found to be 1.97; in data set [4], 3.27; in data set [5], 0.68. In addition, the inhibition in data set [2] worked out at 14.7%; in data set [6] it was 11.6%. Moreover, the IC50 in data set [3] is 9.1 µM; in [8], 47 nM. The fold change (FC) in data set [7] is greater than 3.
On to `O=[N+]([O-])c1ccc(OP(=O)(O)Oc2ccc([N+](=O)[O-])cc2)cc1`, for which the inhibition entry in [2] and in [6] was “inactive” each time.
As to `Cc1ccc(N/N=C(\C(=O)O)C(=O)C(F)F)cc1`, the figures for the Activity in data set [1], in data set [4] and in data set [5] were 1.67, 3.13 and 2.1, respectively. The compound also came in with an inhibition in [2] of 10.2%. The IC50 in data set [3] worked out at 9.8 µM. In addition, the inhibition result in data set [6] was “inactive”. Also, the fold change (FC) in data set [7] was greater than 3. Besides, the inhibition at 20 µM in data set [15] is 23.8%.
For `COc1ccc(N/N=C(\C(=O)O)C(=O)C(F)(F)C(F)(F)C(F)(F)C(F)(F)F)cc1`, the values for the Activity in data set [1], in data set [4] and in [5] were 1.9, 3.87 and 1.68, respectively. In addition, the inhibition in data set [2] stood at 4.4%; in data set [6], 19.9%. The IC50 in [3] came out at 9.5 µM; in data set [8], 297 nM. Besides, in data set [7], the fold change (FC) is greater than 3.
Consider `CC(=O)/C(=N/Nc1ccc(C(=O)O)cc1)C(=O)O`, for which the Activity in data set [1] worked out at 1.25; in [4] it was 2.2; in [5] it was 0.41. The inhibition stood at 5.8% in data set [2] and 8.2% in [6]. For the same compound, in data set [3], the IC50 turned out to be 10.3 µM. Further, the fold change (FC) in [7] was greater than 3. Besides, in data set [15], the inhibition at 20 µM was determined as 18.6%.

Values taken from ChEMBL document CHEMBL6087406, “2-Arylhydrazinylidene-3-oxo-3-polyfluoroalkylpropanoic acids as selective and effective carboxylesterase inhibitors with powerful antioxidant potential” (Bioorg Med Chem, 2024).
